According to patent publication US10392363B2, “Methods for treating protozoan infections” (Neoculi Pty Ltd., priority 2014, dated 2019):

Experiments:
[1] = Microsomal stability, human; type: in vitro ADME; details: human, 1 μM
Experimental: Incubation methods: The metabolic stability assay was performed by incubating each test compound (at 1 μM) with human and mouse liver microsomes (Xenotech, Lot#1210057 and 1310211, respectively) at 37° C. and 0.4 mg/mL protein concentration. The metabolic reaction was initiated by the addition of an NADPH-regenerating system (i.e. NADPH is the cofactor required for CYP450-mediated metabolism) and quenched at various time points over a 60 minute incubation period by the addition of acetonitrile containing diazepam as internal standard. Control samples (containing no NADPH) were included (and quenched at 2, 30 and 60 minutes) to monitor for potential degradation in the absence of cofactor. Analytical conditions: Instrument: Waters Micromass Xevo G2 QTOF coupled to a Waters Acquity UPLC; Detection: Positive electrospray ionisation under MSE mode; Cone Voltage 30 V; Column: Ascentis Express Amide column (50×2.1 mm, 2.7 μm); LC conditions: Gradient cycle time: 4 minutes; Injection volume: 5 μL; Flow rate: 0.4 mL/min; Mobile phase: Acetonitrile-water gradient with 0.05% formic acid Metabolite; Identification: A metabolite screen was not included in this study, however, since data was acquired using MSE mode, which allows for the simultaneous acquisition of low and high collision energy MS spectra, a post-hoc metabolite search may be conducted at a later date if warranted. […]

[2] = system: Giardia duodenalis trophozoites; assay: Resazurin reduction assay (Example 3); type: cell-based; details: 42 hours, then 6 hours with Alamarblue
Experimental: Giardia trophozoites were grown until confluent. The media was replaced with fresh media and they were cold shocked for 40 minutes (as above). Cells were diluted to a concentration of ˜500 000 cells/ml and 100 μl were added to each well of the assay plate (except media only control). The assay was incubated in an anaerobic environment (candle jar) for 42 hours at 37° C. […] After incubation the absorbance of each sample was read at 570 and 630 nm. The percent reduction of resazurin (Alamarblue™) was calculated and data was analysed with GraphPad Prism v6 software. Assay set-up: the assay was performed in 96 well plates in a total volume of 200 μl. 100 μl of NCL812 or NCL062 (concentration of 25.6 mg/ml in DMSO) or metronidazole (concentration 5 mg/ml in DMSO) stock was added to 9.9 ml of TYI-S-33 medium, then serially diluted 1:2 in the same medium. Cells were added as above.

[3] = Release from Formulation B (Franz diffusion cells); type: physicochemical; details: absolute ethanol receptor, 32° C., up to 24 hours
Experimental: Franz diffusion cells were utilized to quantify the release rate of NCL 812 and NCL099 from its topical formulations. Five milliliters of absolute ethanol, which was chosen as the desired release medium, was loaded into the receptor chamber. Temperature of the receptor fluid was kept constant, at 32±1° C. using a water jacket. Acetyl cellulose membranes, with pore size of 0.45 μm (Pall Corporation) was selected and placed between donor and receptor chamber. Followed by that, a number of test samples (Formulation B) was loaded into the donor chamber. One milliliter of receptor fluid was collected at regular time intervals of 0.25, 0.50, 0.75, 1, 2, 3, 4, 5, 6, 7, 8 and 24 hours through the sampling port. One milliliter of fresh absolute ethanol was immediately returned to the receptor chamber. UV-HPLC was utilized to analyse the content of the receptor fluids attained.

[4] = Exposure in male Swiss outbred mice following IV administration; type: in vivo
Experimental: The systemic exposures of NCL026, NCL195, NCL259 and NCL812 were studied in nonfasted male Swiss outbred mice weighing 26.2-32.1 g. Mice had access to food and water ad libitum throughout the pre- and post-dose sampling period. Each compound was administered IV via a bolus injection into the tail vein (vehicle 20% (v/v) DMSO in PEG400, 1 mL/kg dose volume, n=8 mice per compound). […] A maximum of two samples were obtained from each mouse, with samples being taken either via submandibular bleed (approximately 120 μL; conscious sampling) or terminal cardiac puncture (0.6 mL; while mice were anaesthetised using inhaled Isoflurane). No urine samples were collected as mice were housed in bedded cages during the study. Blood was collected directly into polypropylene Eppendorf tubes containing heparin as anticoagulant, and stabilisation cocktail (containing Complete® (a protease inhibitor cocktail with EDTA) and potassium fluoride) to minimise the potential for ex vivo degradation of the test compounds in blood/plasma samples. Once collected, blood samples were centrifuged immediately, supernatant plasma was removed, and stored at −80° C. until analysis by LC-MS using methods standard in the art. Each compound was administered in a vehicle composed of 20% (v/v) DMSO in PEG400. Formulations were prepared by dissolving the compounds in DMSO prior to addition of PEG400. Formulations were not filtered prior to dosing and were administered to mice within 2.5 h of preparation. […] The dose administered to each mouse was calculated on the basis of the measured concentration in the IV formulation, the dose volume and individual mouse body weight. Plasma concentration versus time data were analysed using non-compartmental methods (WinNonlin Version 6.3.0.395). Standard calculations for each pharmacokinetic parameter were calculated using standard methods in the art.

[5] = system: Giardia duodenalis (WB strain trophozoites); assay: Transmission electron microscopy study; type: cell-based; details: 6 μg/ml NCL812, 1 hour
Experimental: Samples were incubated at 37° C. for 1 hour (NCL treated) or 4 hours (Metronidazole and DMSO control) then cold shocked to detach trophozoites. Treated samples were centrifuged at 900×g for 10 minutes and washed twice with cold saline. Final cell pellet was resuspended in pre-cooled fixative (1.25% gluteraldehyde, 4% paraformaldehyde in PBS with 4% sucrose, pH 7.2) and left overnight. […] Samples were embedded in epoxy resin and stained with uranyl acetate and lead citrate before viewing on an FEI Tecnai G2 Spirit Transmission Electron Microscope.

N=C(N/N=C/c1ccc(Cl)cc1)N/N=C/c1ccc(Cl)cc1 [NCL812, 1,3-bis[(E)-(4-chlorophenyl)methyleneamino]guanidine]
predicted hepatic extraction ratio (EH) [1]: < 0.3 | metabolic activity of the trophozoites (percentage of reduction of resazurin) [2]: reduction in the metabolic activity | release profile from Formulation B [3]: acceptable release profile | adverse reactions after IV dosing ([4]; IV, 5 mg/kg, one mouse): abnormal behaviour (frantic, hyperactive) | AUC0-inf ([4]; male, Swiss outbred, mouse, in vivo, IV 5 mg/kg, values marked a, b are approximations, read-out: AUC0-inf): 27.9 µM·h | Vd ([4]; male, Swiss outbred, mouse, in vivo, IV 5 mg/kg, values marked a, b are approximations, read-out: Plasma Vss): 5.9 L/kg | clearance ([4]; male, Swiss outbred, mouse, plasma, IV 5 mg/kg, values marked a, b are approximations, read-out: Plasma CL): 9.5 mL/min/kg | half-life ([4]; male, Swiss outbred, mouse, IV 5 mg/kg, plasma, value marked b is an approximation, read-out: Apparent t1/2 (converted)): 8.2 h | changes to the ultrastructure of Giardia duodenalis [5]: significant changes
